Experimental data from patent publication US20050064005A1, “Active agent delivery systems including a miscible polymer blend, medical devices, and methods” (priority 2003, published 2005).

Test: In vitro elution kinetics of dual active agent release from coated stents in PBS at 37° C.
Format: physicochemical
Experimental: The in vitro elution kinetics of dual release was carried out in PBS and at 37° C. The stent was crimped on a stent delivery system and then expanded. After expansion, the physical aspects of the stent were noted prior to placing the stent inside a vial containing 3 milliliters (ml) of PBS. The vial was placed in a shaker at 37° C. and at certain time intervals; the whole solution (3 ml) was removed and replaced with fresh PBS. The amount of each active agent in each dual release system was determined by UV-Vis spectrophotometer using wavelengths of 250 nanometers (nm) for mycophenolic acid and 359 nm for sulfasalazine and solving simultaneous equations of active agent mixtures.

Row | Structure (SMILES) | release rate of sulfasalazine (from blends of TECOPLAST and TECOPHILIC polyurethanes as outer layer (FIG. 4)) | release kinetics of the active agent in the inner layer (stent system of FIG. 1 with TECOPLAST middle barrier layer (FIG. 3) versus without barrier (FIG. 2), PBS, 37° C.)
1 | O=C(O)c1cc(/N=N/c2ccc(S(=O)(=O)Nc3ccccn3)cc2)ccc1O [sulfasalazine] | increased as the percentage of TECOPHILIC polyurethane in the blend increased | 
2 | COc1c(C)c2c(c(O)c1C/C=C(\C)CCC(=O)O)C(=O)OC2 [mycophenolic acid] |  | slowed down significantly
